We go through 16 molecules from patent US20170145472A1, “METHOD OF DETECTING HELICASE ACTIVITY” (University of Macau, priority 2015, published 2017).

In one data set the test system is PS2.M G-quadruplex DNA. Nature of the data set: Luminescence response of Ir(III) complexes towards different forms of DNA. The settings on record: complex 1 μM, DNA 5 μM; PS2.M G-quadruplex vs ds17 and CCR5-DEL. The data set is classed as binding. From the text: M G-quadruplex DNA (G4) over dsDNA (ds17) and ssDNA (CCRS-DEL), in particular IG4/IdsDNA refers to the ratio of the luminescent response of PS2. M G-quadruplex DNA over dsDNA (ds17); and IG4/IssDNA refers to the ratio of the luminescent response of PS2. M G-quadruplex DNA over ssDNA(CCR5-DEL).
M G-quadruplex DNA over dsDNA (ds17) and ssDNA (CCRS-DEL), in particular IG4/IdsDNA refers to the ratio of the luminescent response of PS2. M G-quadruplex DNA over dsDNA (ds17); and IG4/IssDNA refers to the ratio of the luminescent response of PS2. M G-quadruplex DNA over ssDNA(CCR5-DEL).
The G-quadruplex DNA-forming sequence (PS2. M) was annealed in Tris-HCl buffer (20 mM Tris, 100 mM KCl, pH 7.0) and were stored at −20° C. or less than −20° C. before use. Complex 1-17 (1 μM) was added to 5 μM of ssDNA, dsDNA or PS2. M G-quadruplex DNA in Tris-HCl buffer (20 mM Tris, pH 7.0).

Data set [1] in a line: Photophysical measurement. Particulars: for Quantum yield: reference [Ru(bpy)3][PF6]2 in degassed acetonitrile. The data set is classed as physicochemical. Here is the method: Emission spectra and lifetime measurements for complexes were performed on a PTI TimeMaster C720 Spectrometer (Nitrogen laser: pulse output 337 nm) fitted with a 380 nm filter. Error limits were estimated: λ (±1 nm); τ (±10%); φ (±10%). All solvents used for the lifetime measurements were degassed using three cycles of freeze-vac-thaw.
Luminescence quantum yields were determined using the method of Demas and Crosby [Ru(bpy)3][PF6]2 in degassed acetonitrile as a standard reference solution (Φr=0.062) and calculated according to the following equation:
Φs=Φr(Br/Bs)(ns/nr)^2(Ds/Dr) • where the subscripts s and r refer to sample and reference standard solution respectively, n is the refractive index of the solvents, D is the integrated intensity, and Φ is the luminescence quantum yield. The quantity B was calculated by B=1−10^−AL, where A is the absorbance at the excitation wavelength and L is the optical path length.

The next data set concerns the target T1, HCV NS3 helicase (Hepatitis C virus genotype 1a, UniProt P27958).
T1 construct: upon the addition of 0.8 μM HCV NS3 helicase; purchased Prospec Inc. (Ness-Ziona, Israel)
Kind of data set: G-quadruplex-based luminescent HCV NS3 helicase activity assay. The data set is classed as biochemical. Particulars: for inhibitory activity towards HCV NS3 helicase: 10 μM inhibitor, 0.8 μM helicase. The protocol:
The random-coil oligonucleotides ON1 (100 μM) and ON2 (100 μM) were incubated in Tris buffer (20 mM, pH 7.0). The solution was heated at a temperature of 72-98° C., in particular 95° C., for at least 30 seconds in particular 10 min, cooled to room temperature at 0.1° C./s, and further incubated at room temperature for 1 hour to ensure formation of the duplex substrate. The annealed product was stored at −20° C. before use. For assaying enzyme activity, 50 μL of Tris buffered solution (5 mM Tris-HCl, 5 mM NaCl, 1 mM MgCl2, 1 mM ATP, 0.1 mM DTT, pH 7.9) with the indicated concentrations of helicase or S1, Endo, DpnI, ExoI, EcoRI, RNase, DNase, and SSB were added to a solution containing the duplex substrate (0.25 μM). The mixture was heated to 37° C. for at least 30 minutes, e.g. 2 hours, to allow the indicated enzymes-catalyzed unwinding of the duplex substrate to take place. The duplex unwinding reaction was quenched by the addition of EDTA at a final concentration of 20 mM, and the mixture was subsequently diluted using Tris buffer (20 mM Tris, 20 mM KCl, 150 mM NH4Ac, pH 7.2) to a final volume of 500 μL. […] Emission spectra were recorded in the 500-720 nm range using an excitation wavelength of 360 nm.
For the detection of helicase activity in cell extract, 50 μL of Tris buffered solution (5 mM Tris-HCl, 5 mM NaCl, 1 mM MgCl2, 1 mM ATP, 0.1 mM DTT, pH 7.9) and the indicated concentrations of helicase were added to a solution containing the duplex substrate (0.25 μM) and cell extract. The mixture was heated to 37° C. for at least 30 minutes, e.g. 2 hours, to allow the helicase-catalyzed unwinding of the duplex substrate to take place. The duplex unwinding reaction was quenched by the addition of EDTA at a final concentration of 20 mM, and the mixture was subsequently diluted using Tris buffer (20 mM Tris, 20 mM KCl, 150 mM NH4Ac, pH 7.2) to a final volume of 500 μL. Finally, 1 μM of complex 9 was added to the mixture. Emission spectra were recorded in the 500-720 nm range using an excitation wavelength of 360 nm.

Another data set deals with T2, helicase (Hepatitis C virus genotype 1a, UniProt P27958).
T2 construct: upon the addition of 0.8 μM HCV NS3 helicase; purchased Prospec Inc. (Ness-Ziona, Israel)
Nature of the data set: Luminescence response of complexes towards helicase alone. Particulars: helicase alone, no DNA. The source says: M G-quadruplex DNA over helicase, IG4/Ihelicase refers to the ratio of the lunminscent response of PS2. M G-quadruplex DNA over helicase.

T1 sequence (P27958 1027-1657): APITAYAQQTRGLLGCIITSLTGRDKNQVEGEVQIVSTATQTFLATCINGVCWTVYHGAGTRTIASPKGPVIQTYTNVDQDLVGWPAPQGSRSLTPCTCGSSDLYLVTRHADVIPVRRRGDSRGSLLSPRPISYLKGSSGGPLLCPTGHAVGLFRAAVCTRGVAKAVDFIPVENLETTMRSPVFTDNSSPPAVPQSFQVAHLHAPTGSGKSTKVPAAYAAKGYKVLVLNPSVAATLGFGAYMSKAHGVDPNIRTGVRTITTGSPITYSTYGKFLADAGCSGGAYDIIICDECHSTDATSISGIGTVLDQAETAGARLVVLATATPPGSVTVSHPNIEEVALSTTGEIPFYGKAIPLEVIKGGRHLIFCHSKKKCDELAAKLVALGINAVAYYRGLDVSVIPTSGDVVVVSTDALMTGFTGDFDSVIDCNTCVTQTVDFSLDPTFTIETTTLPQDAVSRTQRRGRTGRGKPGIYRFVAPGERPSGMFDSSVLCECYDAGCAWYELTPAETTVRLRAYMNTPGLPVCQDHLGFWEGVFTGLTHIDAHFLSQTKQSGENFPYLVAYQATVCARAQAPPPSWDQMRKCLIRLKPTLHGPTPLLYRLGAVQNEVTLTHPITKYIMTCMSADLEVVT
T2 sequence (P27958 1027-1657): as above

In the case of `F[P-](F)(F)(F)(F)F.[Ir+3].[c-]1ccccc1-c1ncco1.[c-]1ccccc1-c1ncco1.c1ccc(-c2ccccn2)nc1` [Complex 6], the “selectivity of luminescence response for G-quadruplex DNA over dsDNA and ssDNA” value (shortened to “selectivity of luminescence response”) in the data set on PS2.M G-quadruplex DNA was “non-selective for G-quadruplex DNA”. Besides, in data set [1], the Lifetime is given as 0.28 μs, the λem is 580 nm and the Quantum yield was 0.089.

As for `O=C(O)c1cn(C2CC2)c2cc(N3CCNCC3)c(F)cc2c1=O` [ciprofloxacin, reference compound], on HCV NS3 helicase (10 μM of ciprofloxacin), the “decrease of luminescence signal of the system” value is “about 40%”. For the same molecule, the “luminescence signal of the system in the presence of inhibitor” value on HCV NS3 helicase (ciprofloxacin 0, 1, 2.5, 5, 10, 20 μM) is given as “diminished in the presence of ciprofloxacin in a dose-dependent manner”.

For the molecule `Brc1c(Br)c(Br)c2n[nH]nc2c1Br` [TBBT, reference compound], on HCV NS3 helicase, the “inhibitory activity towards HCV NS3 helicase” value is on record as “displayed inhibitory activity”.

As to `F[P-](F)(F)(F)(F)F.c1ccc(-c2cc[n+]3c(c2)-c2cc(-c4ccccc4)cc[n+]2[Ir-3]324([c]3ccccc3-c3ccc5ccccc5[n+]32)[c]2ccccc2-c2ccc3ccccc3[n+]24)cc1` [Complex 14], in data set [1], the Lifetime was 4.586 μs, the λem worked out at 560 nm and the Quantum yield was 0.15.

As for `Clc1cc2ccc[n+]3c2c2c1ccc[n+]2[Ir-3]312([c]3ccccc3-c3[nH]c4ccccc4[n+]31)[c]1ccccc1-c1[nH]c3ccccc3[n+]12.F[P-](F)(F)(F)(F)F` [Complex 15], in data set [1], the Lifetime is 2.71 μs, the λem is on record as 620 nm and the Quantum yield turned out to be 0.092.

In data set [1], `Cc1ccc2ccc3ccc(C)[n+]4c3c2[n+]1[Ir-3]412([c]3ccccc3-c3ccc4ccccc4[n+]31)[c]1ccccc1-c1ccc3ccccc3[n+]12.F[P-](F)(F)(F)(F)F` [Complex 11] yielded a Lifetime of 1.96 μs, a λem of 570 nm and a Quantum yield of 0.087.

`Cc1cc(-c2ccccc2)c2ccc3c(-c4ccccc4)cc(C)[n+]4c3c2[n+]1[Ir-3]412([c]3ccccc3-c3ccc4ccccc4[n+]31)[c]1ccccc1-c1ccc3ccccc3[n+]12.F[P-](F)(F)(F)(F)F` [Complex 12]: in data set [1], the Lifetime amounted to 1.84 μs, the λem was determined as 575 nm and the Quantum yield is listed as 0.063.

Consider `Cc1cccc2[n+]1[Ir-3]13([c]4ccccc4-2)([c]2ccccc2-c2cccc(C)[n+]21)[n+]1ccc(-c2ccccc2)c2ccc4c(-c5ccccc5)cc[n+]3c4c21.F[P-](F)(F)(F)(F)F` [Complex 5], for which the “selectivity of luminescence response” value in the data set on PS2.M G-quadruplex DNA is reported as “non-selective for G-quadruplex DNA”. In data set [1], this molecule displayed a Lifetime of 1.23 μs, a λem of 590 nm and a Quantum yield of 0.12.

On to `Clc1cc2cccnc2c2ncccc12.F[P-](F)(F)(F)(F)F.[Ir+3].[c-]1ccccc1-c1ccc2ccccc2n1.[c-]1ccccc1-c1ccc2ccccc2n1` [Complex 7], for which the “selectivity of luminescence response” value in the data set with PS2.M G-quadruplex DNA was “selective response for G-quadruplex DNA”. In addition, in data set [1], the Lifetime was found to be 1.34 μs, the λem turned out to be 571 nm and the Quantum yield was 0.056. In addition, the “luminescence enhancement in the presence of helicase only” value (from here on “luminescence enhancement”) on helicase is given as “not showing any luminescence enhancement towards helicase”.

Take `Clc1cc2cccnc2c2ncccc12.F[P-](F)(F)(F)(F)F.[Ir+3].[c-]1ccccc1-c1ccccn1.[c-]1ccccc1-c1ccccn1` [Complex 17]: in data set [1], the Lifetime came to 2.87 μs, the λem is reported as 608 nm and the Quantum yield came to 0.078.

Regarding `Clc1cc[n+]2c3c1ccc1c(Cl)cc[n+](c13)[Ir-3]213([c]2ccccc2-c2ccc4ccccc4[n+]21)[c]1ccccc1-c1ccc2ccccc2[n+]13.F[P-](F)(F)(F)(F)F` [Complex 10], in data set [1], the Lifetime amounted to 2.89 μs, the λem came out at 590 nm and the Quantum yield is on record as 0.086.

On to `Cc1c(C)c2cccnc2c2ncccc12.Cc1c[c-]c(-c2ccccn2)cc1.Cc1c[c-]c(-c2ccccn2)cc1.F[P-](F)(F)(F)(F)F.[Ir+3]` [Complex 2], for which, in data set [1], the Lifetime was determined as 0.74 μs, the λem is reported as 577 nm and the Quantum yield worked out at 0.057. For the same molecule, the “luminescence enhancement” value at helicase was “enhanced in the presence of helicase only”.

Regarding `F[P-](F)(F)(F)(F)F.c1ccc(-c2ccc3ccc4ccc(-c5ccccc5)[n+]5c4c3[n+]2[Ir-3]523([c]4ccccc4-n4ccc[n+]42)[c]2ccccc2-n2ccc[n+]23)cc1` [Complex 1], in data set [1], the Lifetime is recorded as 3.29 μs, the λem came out at 629 nm and the Quantum yield was 0.13. For the same molecule, the “luminescence enhancement” value on helicase is recorded as “enhanced in the presence of helicase only”.

On to “single-stranded DNA binding protein: single-stranded DNA binding protein (SSB) purchased from New England Biolabs”, for which the “response of the complex 9+G-quadruplex DNA system to other enzymes or proteins (emission intensity)” value with HCV NS3 helicase (selectivity test, enzyme in place of helicase) is recorded as “relatively low emission enhancement”.

In the case of `Cc1ccc(C(=O)Nc2ccc(S(=O)(=O)O)c3cc(S(=O)(=O)O)cc(S(=O)(=O)O)c23)cc1NC(=O)c1cccc(NC(=O)Nc2cccc(C(=O)Nc3cc(C(=O)Nc4ccc(S(=O)(=O)O)c5cc(S(=O)(=O)O)cc(S(=O)(=O)O)c45)ccc3C)c2)c1` [suramin, reference compound], the “inhibitory activity towards HCV NS3 helicase” value on HCV NS3 helicase was “displayed inhibitory activity”.

In data set [1], `F[P-](F)(F)(F)(F)F.c1cc[c]2c(c1)-c1ccc3ccccc3[n+]1[Ir-3]213([c]2ccccc2-c2ccc4ccccc4[n+]21)[n+]1cccc2c4nccnc4c4ccc[n+]3c4c21` [Complex 13] returned a Lifetime of 4.61 μs, a λem of 568 nm and a Quantum yield of 0.067.
